Consider three molecules from patent publication US8008328B2, “Methods for the treatment of diabetes-associated dyslipdemia” (Reddy US Therapeutics, Inc., priority 2007, dated 2011).

The test system of one experiment is db/db mice. Put plainly: Plasma insulin and lipids in db/db diabetic mouse model. It counts as in vivo. The protocol:
The animals were 40 Female db/db diabetic mice, 4 weeks old on a diet of normal rodent chow. The tests were conducted on five groups, with 7-8 mice per group.
Group 1: Control CMC-tween, oral pipetting, 7 mice. Once a day for 28 days, 60 μl/mouse.
Group 2: Niacin 2.5 g/kg (roughly), in drinking water for 28 days, 7 mice (10 mg/mL in water).
Once a day for 28 days, 30 ul/mouse. (2 mg/mL in water)
Group 5: Pioglitazone 30 mg/kg/day, oral pipetting, 7 mice. Once a day for 28 days, 60 μL/mouse. (15 mg/mL in Vehicle)
Body weight was measured in all groups once a week. Food consumption was monitored once a week. All animals were fasted for 4 hours and plasma glucose levels were measured by OneTouch™ Ultra blood glucose meter. 35 animals were divided to 5 groups with 7 mice per group base on plasma glucose level. (Plasma glucose >120 mg/dL as a cut off for animal selection). 200 μL blood samples were collected from retro-orbital vein for plasma insulin level and lipids profile at baseline.
Treatment started for all groups and lasted for 28 days. 4 hours fast blood samples were collected for plasma insulin level and lipids profile at 2 weeks and 4 weeks post dose. The Oral Glucose Tolerance Test (“OGTT”) was conducted at day 16 and day 30 post dose.

Experiment [1] deals with insulin receptor substrate (IRS-1). Put plainly: IRS-1 Ser307 phosphorylation in differentiated 3T3L1 adipocytes (Western blot). The format is cell-based, Murine. The note with it: FIG. 1; for IRS-1 phosphorylation: agent alone compared to untreated, 3T3L1 adipocytes. On the technique in general: In western blotting, separated proteins are transferred to a membrane and probed.

For another experiment, the system named is THP-1. Put plainly: Niacin-induced PGD2 secretion in PMA-differentiated THP-1 macrophages. The format is cell-based, human. The note with it: FIG. 4.
Setting [2] is: db/db diabetic dyslipidemia model, FIG. 3.

Take `Cc1cnc(NC(=O)C2=C(O)c3ccccc3S(=O)(=O)N2C)s1` [meloxicam]: the insulin levels result in the experiment with db/db mice (db/db mice, 2 mg/kg/day for two weeks) is “reduced”. Also, in the experiment on db/db mice (db/db mice, treatment up to 28 days, FIG. 2), the plasma insulin result was “significantly reduced”. The “effect on niacin's ability to increase HDL or decrease triglycerides” value in the experiment with db/db mice (meloxicam added to niacin, db/db mice, FIG. 3) was “did not affect”. Further, the “effect on TNFα-induced IRS1 phosphorylation” value in experiment [1] (cells incubated with compound 2 hours prior to TNFα (20 ng/mL, 30 minutes)) was “inhibited”. For the same molecule, the “effect on niacin-induced increase in PGD2 levels” value in the experiment on THP-1 (compound 30 minutes prior to niacin) is listed as “inhibited”.

On to `O=C(O)c1cccnc1` [niacin, pyridine-3-carboxylic acid], for which, in the experiment with db/db mice (setting [2]), the HDL entry is “increase” and the triglycerides entry is recorded as “decrease”. For the same molecule, in experiment [1], the IRS-1 phosphorylation result is “significantly increased”. Moreover, the “PGD2 levels in culture medium” value in the experiment with THP-1 (compared to controls) is “increased”.

In the case of TNFα, in experiment [1], the IRS-1 phosphorylation result is on record as “increased”.
